Measurements taken from PMC12070605 (BMC Chemistry, 2025).

How the values were obtained:
Format in all cases: cell-based, human
[1] = test system: MCF-7 cell line; assay: MTT cytotoxicity assay, MCF-7
[2] = test system: MCF-7 cell line; assay: Annexin V-PI flow cytometry apoptosis assay; details: 72 h, untreated 4.5%
[3] = test system: MCF-7 cell line; assay: Cell cycle analysis by flow cytometry; details: 72 h, untreated 15.93%

Compound	improvement of activity compared to Erlotinib [1]	percentage of apoptotic cells ([2]; 5 µM)	percentage of apoptotic cells ([2]; 10 µM)	percentage of apoptotic cells ([2]; 20 µM)	accumulation of the cells in S phase ([3]; 5 µM)	accumulation of the cells in S phase ([3]; 10 µM)	accumulation of the cells in S phase ([3]; 20 µM)
NNc1nc2ccc(Br)cc2c(=O)n1-c1ccc(F)cc1 [7j, 6-bromo-3-(4-fluorophenyl)-2-hydrazineylquinazolin-4(3H)-one]	6 folds						
NNc1nc2ccc(Br)cc2c(=O)n1-c1ccc(Cl)cc1 [7k, 6-bromo-3-(4-chlorophenyl)-2-hydrazineylquinazolin-4(3H)-one]	6 folds	17.46%	41.2%	56%	16.66%	25.65%	30.61%
